# Key:
# [1] = biological target: T1, rat mGluR5 (Rattus norvegicus, UniProt P31424); test: mGluR5 assay on HEK-expressing rat mGluR5 (fluorescent cell based Ca2+ mobilization assay); conditions: for EC50: HEK-293 cells stably expressing rat mGluR5, no co-addition of glutamate, mean of at least three independent experiments in duplicate, read-out: Ca++ Flux (mean EC50); for activation of rat mGluR5 receptors without co-addition of glutamate or mGluR5 agonist: HEK-rat mGluR5 cell line
# T1 construct: expressed in transfected cells
# T1 sequence (P31424 21-1171 isoform P31424-2 limits assumed): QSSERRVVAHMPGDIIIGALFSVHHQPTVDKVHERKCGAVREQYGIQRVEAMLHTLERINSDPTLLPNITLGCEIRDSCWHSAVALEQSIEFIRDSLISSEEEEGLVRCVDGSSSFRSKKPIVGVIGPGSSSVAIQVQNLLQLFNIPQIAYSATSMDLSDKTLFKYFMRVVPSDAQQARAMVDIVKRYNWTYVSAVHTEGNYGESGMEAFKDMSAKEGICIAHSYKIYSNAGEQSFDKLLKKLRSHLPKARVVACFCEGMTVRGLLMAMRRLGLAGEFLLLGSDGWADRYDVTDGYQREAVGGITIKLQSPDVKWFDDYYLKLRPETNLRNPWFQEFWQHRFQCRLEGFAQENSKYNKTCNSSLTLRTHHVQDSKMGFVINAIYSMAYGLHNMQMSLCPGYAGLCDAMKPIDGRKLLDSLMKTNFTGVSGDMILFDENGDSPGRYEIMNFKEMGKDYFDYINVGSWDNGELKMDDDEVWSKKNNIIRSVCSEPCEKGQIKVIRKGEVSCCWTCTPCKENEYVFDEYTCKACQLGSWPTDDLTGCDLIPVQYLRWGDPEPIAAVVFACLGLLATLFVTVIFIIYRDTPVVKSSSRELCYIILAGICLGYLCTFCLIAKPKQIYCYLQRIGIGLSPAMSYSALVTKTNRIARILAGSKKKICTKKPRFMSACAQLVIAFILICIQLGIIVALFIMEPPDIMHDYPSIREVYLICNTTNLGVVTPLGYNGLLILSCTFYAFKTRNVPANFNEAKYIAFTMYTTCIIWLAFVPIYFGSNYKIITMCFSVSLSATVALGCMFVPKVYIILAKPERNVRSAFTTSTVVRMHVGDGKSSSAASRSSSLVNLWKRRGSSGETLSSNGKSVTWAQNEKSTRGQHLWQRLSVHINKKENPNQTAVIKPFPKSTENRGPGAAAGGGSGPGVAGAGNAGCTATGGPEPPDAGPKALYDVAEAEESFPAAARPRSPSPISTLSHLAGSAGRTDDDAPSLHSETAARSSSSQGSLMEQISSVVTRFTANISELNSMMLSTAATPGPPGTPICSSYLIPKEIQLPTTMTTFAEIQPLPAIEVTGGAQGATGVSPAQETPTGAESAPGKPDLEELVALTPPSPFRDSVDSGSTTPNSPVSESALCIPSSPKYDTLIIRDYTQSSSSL
# Method: Positive functional expression of HEK-293 cells stably expressing rat mGluR5 receptor was determined by measuring intracellular Ca^2+ changes using a Fluorometric Imaging Plate Reader (FLIPR, Molecular Devices, Sunnyvale, Calif.) in response to glutamate or selective known mGluR5 agonists and antagonists. Rat mGluR5RT-PCR products in HEK-293 cells were sequenced and found 100% identical to rat mGluR5Genbank reference sequence (NM_017012). HEK-293 cells expressing rmGluR5 were maintained in media containing DMEM, dialyzed Fetal Bovine Serum (10%), Glutamax™ (2 mM), Penicillin (100 units/ml), Streptomycin (100 μg/ml), Geneticin (100 μg/ml) and Hygromycin-B (40 μg/ml) at 37° C./5% CO2.
# After one day of incubation, cells were washed with assay buffer containing: 142 mM NaCl, 6 mM KCl, 1 mM […], 1 mM CaCl2, 20 mM HEPES, 1 g/L glucose, 0.125 mM sulfinpyrazone, pH 7.4. After 60 min of loading with 4 uM Fluo-4 (TefLabs, Austin, Tex.), the cells were washed three times with 50 μl of PBS Buffer and resuspended in 45 μl of assay Buffer. The plates were then transferred to a Fluorometric Imaging Plate Reader (FLIPR, Molecular Devices, Sunnyvale, Calif.) for the assessment of intracellular calcium flux. After monitoring the baseline fluorescence for 10 seconds, increasing concentrations of representative compound (from 0.01 to 60 μM) of the present invention diluted in Assay Buffer (15 μl of 4× dilutions) was added to the cell. The final DMSO concentration in the assay was 0.3%. In each experiment, fluorescence was then monitored as a function of time for 3 minutes and the data analyzed using Microsoft Excel and GraphPad Prism. Each data point was also measured two times.
# Under these experimental conditions, this HEK-rat mGluR5 cell line is able to directly detect positive allosteric modulators without the need of co-addition of glutamate or mGluR5 agonist.
# The concentration-response curves of representative compounds of the present invention were generated using the Prism GraphPad software (Graph Pad Inc, San Diego, USA). The curves were fitted to a four-parameter logistic equation:
# (Y=Bottom+(Top−Bottom)/(1+10̂((Log EC50−X)*Hill Slope)
# allowing determination of EC50 values.
# The Table 5 below represents the mean EC50 obtained from at least three independent experiments of selected molecules performed in duplicate.
# [2] = biological target: T2, mGluR5 (Rattus norvegicus, UniProt P31424); conditions: cited from earlier work
# T2 construct: positive allosteric modulators of mGluR5 receptors in native preparations; endogenous in cells; host or cells: primary cortical astrocytes from Sprague-Dawley rat embryos (E16-19)
# T2 sequence (P31424 21-1203): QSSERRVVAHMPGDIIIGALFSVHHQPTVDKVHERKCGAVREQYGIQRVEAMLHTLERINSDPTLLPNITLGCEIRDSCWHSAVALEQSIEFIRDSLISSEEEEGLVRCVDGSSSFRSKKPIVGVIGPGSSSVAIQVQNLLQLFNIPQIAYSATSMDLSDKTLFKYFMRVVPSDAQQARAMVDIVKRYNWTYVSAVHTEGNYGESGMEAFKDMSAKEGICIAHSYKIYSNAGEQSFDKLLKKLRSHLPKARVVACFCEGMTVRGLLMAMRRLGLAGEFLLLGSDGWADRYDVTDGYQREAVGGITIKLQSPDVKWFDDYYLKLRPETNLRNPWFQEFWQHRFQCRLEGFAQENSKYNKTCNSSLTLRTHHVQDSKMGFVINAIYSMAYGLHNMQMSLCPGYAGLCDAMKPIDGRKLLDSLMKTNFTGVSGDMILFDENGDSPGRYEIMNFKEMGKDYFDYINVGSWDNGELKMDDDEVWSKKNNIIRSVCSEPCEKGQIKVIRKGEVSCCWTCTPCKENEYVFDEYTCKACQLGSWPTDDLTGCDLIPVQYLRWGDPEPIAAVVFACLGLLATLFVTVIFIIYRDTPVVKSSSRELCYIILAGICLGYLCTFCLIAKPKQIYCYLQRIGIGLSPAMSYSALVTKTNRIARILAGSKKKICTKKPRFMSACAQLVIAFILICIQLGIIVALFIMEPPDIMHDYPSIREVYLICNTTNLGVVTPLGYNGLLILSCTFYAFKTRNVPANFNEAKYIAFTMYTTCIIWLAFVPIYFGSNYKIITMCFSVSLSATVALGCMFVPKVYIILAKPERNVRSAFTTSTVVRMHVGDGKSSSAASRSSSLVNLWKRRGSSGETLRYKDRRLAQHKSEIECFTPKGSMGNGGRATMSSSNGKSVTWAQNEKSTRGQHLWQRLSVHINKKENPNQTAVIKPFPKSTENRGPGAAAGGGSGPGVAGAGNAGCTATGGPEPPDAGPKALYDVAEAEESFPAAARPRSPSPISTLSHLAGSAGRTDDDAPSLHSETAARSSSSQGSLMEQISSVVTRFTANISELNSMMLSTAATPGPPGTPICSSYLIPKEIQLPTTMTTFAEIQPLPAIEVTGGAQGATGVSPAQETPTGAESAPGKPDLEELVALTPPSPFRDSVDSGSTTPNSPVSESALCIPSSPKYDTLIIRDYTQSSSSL
Structure (SMILES),EC50 [1],also measured
"O=C(c1ccc(F)c(F)c1)N1CCC[C@H](c2noc(Cc3ccc(F)cc3)n2)C1 [Example 3, (3,4-Difluoro-phenyl)-{(S)-3-[5-(4-fluoro-benzyl)-[1,2,4]oxadiazol-3-yl]-piperidin-1-yl}-methanone]",< 1000 nM,
"O=C(c1ccc(F)cc1)N1CCC[C@H](c2noc(Cc3ccccc3)n2)C1 [Example 7, [(S)-3-(5-Benzyl-[1,2,4]oxadiazol-3-yl)-piperidin-1-yl]-(4-fluoro-phenyl)-methanone]",< 1000 nM,melting point: 75 °C
"N#Cc1cccc(C(=O)Nc2cc(-c3ccccc3)nn2-c2ccccc2)c1 [CDPPB, reference compound]",,activation of rat mGluR5 receptors without co-addition of glutamate or mGluR5 agonist [1]: activating; activity in rat cortical astrocytes culture in the absence of added glutamate [2]: inactive
"Fc1cccc(/C=N/N=C/c2cccc(F)c2)c1 [DFB, reference compound]",,activation of rat mGluR5 receptors without co-addition of glutamate or mGluR5 agonist [1]: activating; activity in rat cortical astrocytes culture in the absence of added glutamate [2]: inactive
"O=C(Nc1ccc(Cl)cc1CN1C(=O)c2ccccc2C1=O)c1ccccc1O [CPPHA, reference compound]",,activation of rat mGluR5 receptors without co-addition of glutamate or mGluR5 agonist [1]: activating; activity in rat cortical astrocytes culture in the absence of added glutamate [2]: inactive
"O=C(c1ccc(F)cc1)N1CCC[C@H](c2noc(CCc3ccccc3)n2)C1 [Example 10, (4-Fluoro-phenyl)-[(S)-3-(5-phenethyl-[1,2,4]oxadiazol-3-yl)-piperidin-1-yl]-methanone]",1000 to 10000 nM,
"O=C(c1ccc(F)cc1)N1CCC[C@H](c2noc(NCc3ccc(F)cc3)n2)C1 [Example 13, {(S)-3-[5-(4-Fluoro-benzylamino)-[1,2,4]oxadiazol-3-yl]-piperidin-1-yl}-(4-fluoro-phenyl)-methanone]",1000 to 10000 nM,
"O=C(c1ccc(F)cc1)N1CCC[C@H](n2nnc(Cc3ccccc3)n2)C1 [Example 14, [(S)-3-(5-Benzyl-tetrazol-2-yl)-piperidin-1-yl]-(4-fluoro-phenyl)-methanone]",< 1000 nM,
"O=C(c1ccc(F)c(F)c1)N1CCC[C@H](c2nc(Cc3ccc(F)cc3)no2)C1 [Example 2, (3,4-Difluoro-phenyl)-{(S)-3-[3-(4-fluoro-benzyl)-[1,2,4]oxadiazol-5-yl]-piperidin-1-yl}-methanone]",< 1000 nM,
"O=C(c1ccc(F)cc1)N1CCC[C@H](c2noc(Nc3ccccc3)n2)C1 [Example 12, (4-Fluoro-phenyl)-[(S)-3-(5-phenylamino-[1,2,4]oxadiazol-3-yl)-piperidin-1-yl]-methanone]",1000 to 10000 nM,
"O=C(c1ccc(F)cc1)N1CCC[C@H](c2noc(Cc3ccc(F)cc3)n2)C1 [Example 4, {(S)-3-[5-(4-Fluoro-benzyl)-[1,2,4]oxadiazol-3-yl]-piperidin-1-yl}-(4-fluoro-phenyl)-methanone]",< 1000 nM,
"C[C@@H](c1ccccc1)c1nc([C@H]2CCCN(C(=O)c3ccc(F)cc3)C2)no1 [Example 5, (4-Fluoro-phenyl)-{(S)-3-[5-((S)-1-phenyl-ethyl)-[1,2,4]oxadiazol-3-yl]-piperidin-1-yl}-methanone]",1000 to 10000 nM,
"O=C(c1ccccc1)c1nc([C@H]2CCCN(C(=O)c3ccc(F)cc3)C2)no1 [Example 11, {3-[(S)-1-(4-Fluoro-benzoyl)-piperidin-3-yl]-[1,2,4]oxadiazol-5-yl}-phenyl-methanone]",1000 to 10000 nM,melting point: 80 to 83 °C
"C[C@H](c1ccccc1)c1nc([C@H]2CCCN(C(=O)c3ccc(F)cc3)C2)no1 [Example 6, (4-Fluoro-phenyl)-{(S)-3-[5-((R)-1-phenyl-ethyl)-[1,2,4]oxadiazol-3-yl]-piperidin-1-yl}-methanone]",> 10000 nM,

# More lines, main results first:
EC50 [1],Structure (SMILES),also measured
> 10000 nM,"O=C(c1ccc(F)cc1)N1CCC[C@H](c2noc([C@@H](O)c3ccccc3)n2)C1 [Example 8, (4-Fluoro-phenyl)-{(S)-3-[5-((S)-hydroxy-phenyl-methyl)-[1,2,4]oxadiazol-3-yl]-piperidin-1-yl}-methanone]",melting point: 168 to 172 °C
1000 to 10000 nM,"O=C(c1ccc(F)nc1)N1CCC[C@H](c2nc(Oc3ccccc3F)no2)C1 [Example 18, {(S)-3-[3-(2-Fluoro-phenoxy)-[1,2,4]oxadiazol-5-yl]-piperidin-1-yl}-(6-fluoro-pyridin-3-yl)-methanone]",
1000 to 10000 nM,"O=C(c1ccc(F)cc1)N1CCCC(c2nc(Oc3ccc(F)cc3)no2)C1 (centres unmarked) [Example 15, {3-[3-(4-Fluoro-phenoxy)-[1,2,4]oxadiazol-5-yl]-piperidin-1-yl}-(4-fluoro-phenyl)-methanone]",
< 1000 nM,"O=C(c1ccc(F)nc1)N1CCC[C@H](c2nc(Oc3ccccc3)no2)C1 [Example 17, (6-Fluoro-pyridin-3-yl)-[(S)-3-(3-phenoxy-[1,2,4]oxadiazol-5-yl)-piperidin-1-yl]-methanone]",
< 1000 nM,"O=C(c1ccc(F)cc1)N1CCCC(c2nc(Oc3cccc(F)c3)no2)C1 (centres unmarked) [Example 21, {3-[3-(3-Fluoro-phenoxy)-[1,2,4]oxadiazol-5-yl]-piperidin-1-yl}-(4-fluoro-phenyl)-methanone]",melting point: 99 to 102 °C
> 10000 nM,"O=C(c1ccc(F)cc1)N1CCC[C@H](c2nc(Sc3ccccc3)no2)C1 [Example 20, (4-Fluoro-phenyl)-[(S)-3-(3-phenylsulfanyl-[1,2,4]oxadiazol-5-yl)-piperidin-1-yl]-methanone]",
1000 to 10000 nM,"O=C(c1ccncc1F)N1CCC[C@H](c2nc(Oc3ccccc3)no2)C1 [Example 22, (3-Fluoro-pyridin-4-yl)-[(S)-3-(3-phenoxy-[1,2,4]oxadiazol-5-yl)-piperidin-1-yl]-methanone]",
< 1000 nM,"O=C(c1ccc(F)nc1)N1CCC[C@H](c2nc(Oc3cccc(F)c3)no2)C1 [Example 19, {(S)-3-[3-(3-Fluoro-phenoxy)-[1,2,4]oxadiazol-5-yl]-piperidin-1-yl}-(6-fluoro-pyridin-3-yl)-methanone]",
< 1000 nM,"O=C(c1ccc(F)cc1)N1CCCC(c2nc(Oc3ccccc3)no2)C1 (centres unmarked) [Example 16, (4-Fluoro-phenyl)-[3-(3-phenoxy-[1,2,4]oxadiazol-5-yl)-piperidin-1-yl]-methanone]",melting point: 96 to 100 °C
1000 to 10000 nM,"O=C(c1ccc(F)cc1)N1CCC[C@H](c2noc([C@H](O)c3ccccc3)n2)C1 [Example 9, (4-Fluoro-phenyl)-{(S)-3-[5-((R)-hydroxy-phenyl-methyl)-[1,2,4]oxadiazol-3-yl]-piperidin-1-yl}-methanone]",
